Article PMC12187869, “Transport of the uremic toxin symmetric dimethylarginine (SDMA) by renal transport proteins” (Amino Acids, 2025)

Tests used:
Type in all cases: cell-based
CAT1 [1] = target: T1, CAT1 (Homo sapiens, UniProt P30825); test: inhibition of [3H]SDMA uptake in HEK-CAT1 cells at […]
T1 construct: gene SLC7A1; HEK293 cells stably expressing human CAT1

CAT1 [2] = target: T1, CAT1; test: inhibition of [3H]SDMA uptake in HEK-CAT1 cells
OATP4C1 [3] = target: T2, OATP4C1 (Homo sapiens, UniProt Q6ZQN7); test: inhibition of [3H]SDMA uptake in HEK-OATP4C1 cells
T2 construct: gene SLCO4C1; HEK293 cells stably expressing human OATP4C1
T2 sequence (Q6ZQN7 1-724): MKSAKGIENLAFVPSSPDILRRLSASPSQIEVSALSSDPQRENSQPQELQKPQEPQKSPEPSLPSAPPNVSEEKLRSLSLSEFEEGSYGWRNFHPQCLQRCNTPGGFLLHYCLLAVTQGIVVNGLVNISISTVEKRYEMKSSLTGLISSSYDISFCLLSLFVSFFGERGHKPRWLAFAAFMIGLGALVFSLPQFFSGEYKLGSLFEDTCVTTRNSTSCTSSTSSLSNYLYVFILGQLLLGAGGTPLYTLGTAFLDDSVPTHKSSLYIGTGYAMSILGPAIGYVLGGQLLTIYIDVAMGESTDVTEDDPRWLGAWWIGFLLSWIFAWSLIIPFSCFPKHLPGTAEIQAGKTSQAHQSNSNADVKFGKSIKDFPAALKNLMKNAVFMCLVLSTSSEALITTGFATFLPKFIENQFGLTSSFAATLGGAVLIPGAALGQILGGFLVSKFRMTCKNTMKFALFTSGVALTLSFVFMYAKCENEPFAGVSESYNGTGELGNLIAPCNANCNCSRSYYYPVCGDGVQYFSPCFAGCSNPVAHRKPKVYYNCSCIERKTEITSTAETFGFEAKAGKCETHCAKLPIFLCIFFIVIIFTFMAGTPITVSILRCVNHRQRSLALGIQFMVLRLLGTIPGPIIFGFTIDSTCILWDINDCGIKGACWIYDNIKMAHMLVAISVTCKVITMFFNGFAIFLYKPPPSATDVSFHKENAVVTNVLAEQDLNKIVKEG

OATP4C1 [4] = target: T2, OATP4C1; test: inhibition of [3H]SDMA uptake in HEK-OATP4C1 cells at […]
OCT2 = target: T3, OCT2 (Homo sapiens, UniProt O15244); test: [3H]SDMA uptake in HEK-OCT2 cells; no saturation up to […]
T3 construct: gene SLC22A2; HEK293 cells stably expressing human OCT2
T3 sequence (O15244 1-555): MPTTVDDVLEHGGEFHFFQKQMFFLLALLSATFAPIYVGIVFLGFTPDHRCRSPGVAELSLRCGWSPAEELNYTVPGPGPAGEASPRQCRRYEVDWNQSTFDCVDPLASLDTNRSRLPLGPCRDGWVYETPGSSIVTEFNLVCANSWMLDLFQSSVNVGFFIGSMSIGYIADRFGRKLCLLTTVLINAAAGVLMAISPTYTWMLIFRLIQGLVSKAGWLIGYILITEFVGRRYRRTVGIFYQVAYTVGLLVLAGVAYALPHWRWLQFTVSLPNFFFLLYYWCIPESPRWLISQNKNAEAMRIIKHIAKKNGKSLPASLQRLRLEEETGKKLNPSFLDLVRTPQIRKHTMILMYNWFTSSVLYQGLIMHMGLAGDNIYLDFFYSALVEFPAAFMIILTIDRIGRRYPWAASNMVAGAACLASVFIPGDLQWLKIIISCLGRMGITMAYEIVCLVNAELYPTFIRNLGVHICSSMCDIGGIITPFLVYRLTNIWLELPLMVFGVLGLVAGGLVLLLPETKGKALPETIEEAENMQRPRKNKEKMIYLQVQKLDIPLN

MATE1 = target: T4, MATE1 (Homo sapiens, UniProt Q96FL8); test: [3H]SDMA uptake kinetics (Km) in HEK-MATE1 cells; conditions: read-out: Km in μM
T4 construct: gene SLC47A1; HEK293 cells stably expressing human MATE1
T4 sequence (Q96FL8 1-570): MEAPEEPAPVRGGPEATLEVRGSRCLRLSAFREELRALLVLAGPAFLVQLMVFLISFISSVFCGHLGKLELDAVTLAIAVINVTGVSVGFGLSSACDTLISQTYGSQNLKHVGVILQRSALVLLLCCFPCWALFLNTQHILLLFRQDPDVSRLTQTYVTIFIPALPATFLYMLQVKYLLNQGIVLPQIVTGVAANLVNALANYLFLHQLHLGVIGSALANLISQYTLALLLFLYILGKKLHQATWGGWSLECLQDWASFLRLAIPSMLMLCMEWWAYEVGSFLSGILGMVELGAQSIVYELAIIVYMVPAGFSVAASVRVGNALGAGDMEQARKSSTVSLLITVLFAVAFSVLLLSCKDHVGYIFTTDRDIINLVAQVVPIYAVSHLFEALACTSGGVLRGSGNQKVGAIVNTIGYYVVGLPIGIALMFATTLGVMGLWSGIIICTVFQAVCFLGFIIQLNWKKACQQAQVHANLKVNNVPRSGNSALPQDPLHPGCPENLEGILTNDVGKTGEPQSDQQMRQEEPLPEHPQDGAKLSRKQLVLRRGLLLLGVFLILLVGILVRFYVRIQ

T1 sequence (P30825 whole entry): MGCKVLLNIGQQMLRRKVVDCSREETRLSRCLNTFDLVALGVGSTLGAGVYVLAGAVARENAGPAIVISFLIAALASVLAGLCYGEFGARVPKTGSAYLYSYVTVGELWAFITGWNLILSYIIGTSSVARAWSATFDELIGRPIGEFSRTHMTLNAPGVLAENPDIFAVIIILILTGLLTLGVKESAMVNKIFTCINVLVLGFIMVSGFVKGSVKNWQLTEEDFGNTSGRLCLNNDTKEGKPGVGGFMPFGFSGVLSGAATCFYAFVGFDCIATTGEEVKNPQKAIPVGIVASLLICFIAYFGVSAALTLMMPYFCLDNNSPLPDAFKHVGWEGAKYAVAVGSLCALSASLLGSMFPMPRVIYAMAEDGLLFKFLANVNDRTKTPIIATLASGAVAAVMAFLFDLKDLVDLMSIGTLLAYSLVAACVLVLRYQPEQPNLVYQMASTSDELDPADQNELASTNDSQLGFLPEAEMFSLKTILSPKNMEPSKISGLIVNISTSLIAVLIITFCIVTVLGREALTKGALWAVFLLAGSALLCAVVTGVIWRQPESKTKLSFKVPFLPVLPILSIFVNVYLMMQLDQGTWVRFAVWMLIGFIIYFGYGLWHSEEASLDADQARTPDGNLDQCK

## CN(C)C(=N)NCCC[C@H](N)C(=O)O [ADMA]
CAT1 [1]
  inhibition of [3H]SDMA uptake in HEK-CAT1 cells at 50 and 500 μM: all influenced SDMA transport, thereby competing with SDMA for CAT1- or OATP4C1-mediated uptake

## N=C(N)NCCC[C@H](N)C(=O)O [L-arginine]
CAT1 [2]
  IC50: 280 µM
OATP4C1 [3]
  IC50: 28.8 µM

## N=C(N)NCCCC[C@H](N)C(=O)O [L-homoarginine]
OATP4C1 [4]
  inhibition of [3H]SDMA uptake in HEK-OATP4C1 cells at 50 and 500 μM: all influenced SDMA transport, thereby competing with SDMA for CAT1- or OATP4C1-mediated uptake

## CN=C(NC)NCCC[C@H](N)C(=O)O [symmetric dimethylarginine]
OCT2
  [3H]SDMA uptake in HEK-OCT2 cells; no saturation up to 4 000 μM: significant uptake was observed for CAT1-, OATP4C1-, OCT2-, and MATE1-mediated transport
MATE1
  Km: 1970 µM
